How the values were obtained:
[1] = tested on: AsPC1 human pancreatic carcinoma xenografts; test: Antitumor efficacy in AsPC1 pancreatic xenografts in nude mice; type: in vivo
Description: Female (athymic nu/nu) nude mice were obtained from Charles River Laboratories (Wilmington, Mass.), while female SCID-beige mice were purchased from Taconic (Germantown, N.Y.). Mice were used when they were approximately 8-12 weeks old (nudes) or 8-10 weeks old (SCID-beige), and weighed approximately 23-25 grams. The health of all animals was determined daily by gross observation of experimental animals and by the analyses of blood samples of sentinel animals that were housed on the shared shelf racks. All animals were allowed to acclimate and recover from any shipping related stress for a minimum of 72 hours prior to experimental use. Autoclaved water and irradiated food [5058-ms Pico chow (mouse) Purina, Richmond, Ind.] were provided ad libitum, and the animals were maintained on a 12 hour light and dark cycle. Cages, bedding and water bottles were autoclaved before use and were changed weekly. MiaPaca2, AsPC1 and BxPC3 human pancreatic carcinoma cells were purchased from ATCC (Manassas, Va.). BxPC3 and AsPC1 cells were grown in RPMI medium and MiaPaca2 cells were grown in Dulbecco's Modified Essential Medium (DMEM). All culture media were supplemented with 10% (v/v) FBS and 1% (v/v) […]. […] SCID-biege mice were implanted se with 5×10^6 BxPC3 cells in a 1:1 mixture of matrigel:PBS in a volume of 0.2 ml per mouse in the right hind flank on May 22, 2007. […] Formulated compound and vehicle were stored at 4° C. and prepared weekly. The suspension was mixed vigorously prior to administration. Gemcitabine (Gemzar®, Eli Lilly and Company, Indianapolis, Ind., USA) was reconstituted with sterile saline to yield a stock solution of 38 mg/ml for the entire 3-4 week study. […] Nude mice implanted with MiaPaca2 or AsPC1 xenografts were randomized on day 17 and day 9 post cell implant, respectively. SCID-beige mice bearing BxPC3 xenografts were randomized 8 days post implant. […] Treatment for the MiaPaca2 study began on Feb. […] For the MiaPaca2 and AsPC1 studies, qd Compound (1) suspension or q3d gemcitabine treatment ended on day 37 post tumor cell implant, whereas for the BxPC3 study, qd Compound (1) suspension or q3d gemcitabine treatment ended on day 35 post tumor cell implant. For intermittent dosing of Compound (1) suspension in the AsPC1 study using the 7+/7− schedule×2 cycles, treatment ended on day 15, was reinitiated on day 23, and finally ended day 29. For intermittent dosing using the 3+/4− schedule×4 cycles, treatment ended on day 11, was reinitiated on day 16, ended day 18, was reinitiated on day 23, ended day 25, was reinitiated day 30, and finally ended on day 32. In the first combination group, daily Compound (1) was given simultaneously with q3d gemcitabine for a total of four weeks. For the remaining combination groups, Compound (1) and gemcitabine were given sequentially rather than simultaneously. In group 8 gemcitabine was dosed q3d during the 1st and 3rd weeks, whereas Compound (1) was given daily during the 2nd and 4th weeks only. In group 9, the order of compound dosing was reversed, with Compound (1) suspension given daily during the 1st and 3rd weeks, whereas gemcitabine was given q3d during the 2nd and 4th weeks. In group 10, gemcitabine was dosed q3d during the 1st and 2nd weeks, whereas Compound (1) was given daily during the 3rd and 4th weeks. In group 11, the order of compound dosing was reversed, with Compound (1) given daily during the 1st and 2nd weeks, and gemcitabine dosed q3d for the 3rd and 4th weeks. […]

A549 cells = test: FACS cell cycle analysis in A549 cells; type: cell-based, human
Description: The A549 cell line was obtained from the American Tissue Culture Collection (ATCC), Manassas, Va. and maintained in Ham's media supplemented with 10% heat-inactivated Fetal Bovine Serum (HI-FBS; GIBCO/BRL, Gaithersburg, Md.) and 2 mM L-glutamine (GIBCO/BRL). 1×10^6 A549 cells were seeded in […] plates for FACS analysis and 3×10^5 cells per well were seeded in 6-well plate for Western blot analysis. Cells were allowed to attach for 24 hours and then treated with compound (1) compound at the following concentrations: 0.1, 0.25, 0.5, 1, 2.5 and 5 μM. Cells were incubated for either 72 or 120 hours and collected for FACS analysis.
Cells were incubated with compound (1) for 72 or 120 hours, harvested by scraping, washed twice in phosphate-buffered saline (PBS), spun down at 1.5×10^3 rpm, and fixed at −20° C. overnight with 70% ethanol. Cells were then analyzed using MPM2-FITC and propidium iodide (PI) double staining (Becton Dickinson, San Jose, Calif.). Briefly, cells were washed twice with cold PBS containing 0.05% Tween-20 (PBST), incubated for 2 hours with anti-Phospho Ser/Thr MPM2 antibody (#05-368, Upstate/Millipore, Bullerica, Mass.), washed with PBST again, incubated in the dark with secondary IgG-FITC antibody (#AP308F, Chemicon, Temecula, Calif.), washed with PBST and incubated with PI/RNase solution (Becton Dickinson, San Jose, Calif.) for additional 30 min at 37° C.
Samples were analyzed on a FACScan flow cytometer (Becton Dickinson, San Jose, Calif.) equipped with a 488 nm argon ion laser. Green fluorescein isothiocyanate (FITC) fluorescence was collected with a 530/30 nm bandpass filter using logarithmic amplification and orange emission from propidium iodide (PI) was filtered through a 585/42 nm bandpass filter using linear amplification. A minimum of 20,000 events was collected on each sample. Cell cycle analysis of DNA histograms was performed with FlowJo software (Tree Star Inc., Ashland, Oreg.).

## CC(C)(C(=O)NCC(F)(F)C(F)(F)F)C(=O)N[C@@H]1C(=O)Nc2ccccc2-c2ccccc21 [Compound (1), 2,2-Dimethyl-N—((S)-6-oxo-6,7-dihydro-5H-dibenzo[b,d]azepin-7-yl)-N′-(2,2,3,3,3-pentafluoro-propyl)-malonamide]
[1]; 3 mg/kg po qd × 28 days, day 37
  % TGI: 49%
[1]; 10 mg/kg po qd × 28 days, day 37
  % TGI: 58%
[1]; 10 mg/kg po, 3+/4− × 4 cycles
  % TGI: 32%
[1]; 10 mg/kg po, 7+/7− × 2 cycles
  % TGI: 41%
A549 cells; 0.10 μM, 72 hrs
  G1, %: 63.1%
  G2/M, %: 23.3%
  subG1, %: 6.5%
A549 cells; 0.10 μM, 120 hrs
  G1, %: 59.0%
  G2/M, %: 24.1%
  subG1, %: 6.8%
A549 cells; 0.25 μM, 72 hrs
  G1, %: 64.8%
  G2/M, %: 20.3%
  subG1, %: 5.9%
A549 cells; 0.25 μM, 120 hrs
  G1, %: 61.1%
  G2/M, %: 23.8%
  subG1, %: 6.7%
A549 cells; 0.50 μM, 72 hrs
  G1, %: 66.6%
  G2/M, %: 19.4%
  subG1, %: 4.3%
A549 cells; 0.50 μM, 120 hrs
  G1, %: 58.6%
  G2/M, %: 23.3%
  subG1, %: 9.6%
A549 cells; 1.0 μM, 72 hrs
  G1, %: 64%
  G2/M, %: 21.5%
  subG1, %: 6.6%
A549 cells; 1.0 μM, 120 hrs
  G1, %: 60.9%
  G2/M, %: 19.8%
  subG1, %: 8.0%
A549 cells; 5.0 μM, 72 hrs
  G1, %: 64.9%
  G2/M, %: 20%
  subG1, %: 8.4%
A549 cells; 5.0 μM, 120 hrs
  G1, %: 58.7%
  G2/M, %: 18.3%
  subG1, %: 13.7%

Reference: patent US8741889B2, “Method of treating non-small cell lung cancer and colon cancer with gamma-secretase inhibitor” (Hoffmann-La Roche Inc, priority 2008, dated 2014)
